Consider 20 compounds from patent EP0900210B1, “ANTIVIRALLY ACTIVE HETEROCYCLIC AZAHEXANE DERIVATIVES” (Novartis AG, priority 1996, dated 1997).

A word on the IC50: it is the midpoint of a concentration-inhibition curve.

One assay has as its target T1, HIV-1-protease (Human immunodeficiency virus type 1 group M subtype B, UniProt P04585).
T1 construct: made in house
Briefly: Inhibition of HIV-1-protease with icosapeptide substrate […] (HPLC). In kind it is biochemical. Particulars: icosapeptide RRSNQVSQNYPIVQNIQGRR 122 µM, 20 mM MES pH 6.0, one hour at 37°C; read-out: IC50. The method, then:
The inhibitory action of the compounds of formula I on the proteolytic activity of HIV-1-protease can be shown, for example, according to known procedures (see A. D. Richards et al., J. Biol. Chem. 265(14), 7733-7736 (1990)). In that method the inhibition of the action of HIV-1-protease (preparation: see S. Billich et al., J. Biol. Chem. 263(34), 17905-17908 (1990)) is measured in the presence of the icosapeptide […] (a synthetic substrate of HIV-1-protease, prepared by peptide synthesis in accordance with known procedures (see J. Schneider et al., Cell 54, 363-368 (1988)), which contains as substrate analogue one of the cleavage sites of the gag-precursor protein (natural substrate of HIV-1-protease). That substrate and its cleavage products are analysed by high performance liquid chromatography (HPLC).
The test compound is dissolved in dimethyl sulfoxide. The enzymatic test is carried out by adding suitable dilutions of the inhibitor in 20 mM β-morpholinoethanesulfonic acid (MES) buffer pH 6.0 to the test mixture. That mixture consists of the above-mentioned icosapeptide (122 µM) in 20 mM MES-buffer pH 6.0. 100 µl are used per test batch. The reaction is started by the addition of […] of HIV-1-protease solution and is stopped after one hour's incubation at 37°C by the addition of 10 µl of 0.3M HClO4. After centrifugation of the sample at 10 000 x g for 5 minutes, 20 µl of the resulting supernatant are applied to a 125 x 4.6 mm Nucleosil® C18-5m-HPLC column (reversed-phase material supplied by Macherey & Nagel, Düren, FRG, based on silica gel that has been charged with C18alkyl chains). The uncleaved icosapeptide and its cleavage products are eluted from the column by means of the following gradient: 100 % eluant 1 → 50 % eluant 1 + 50 % eluant 2 (eluant 1: 10 % acetonitrile, 90 % H2O, 0.1 % trifluoroacetic acid (TFA); eluant 2: 75 % acetonitrile, 25 % H2O, 0.08 % TFA) for 15 minutes, throughflow rate 1 ml/min. The quantification of the eluted peptide fragments is carried out by measuring the peak height of the cleavage product at 215 nm.
Using the test system described above with the icosapeptide […], the IC50 values given below are obtained for the following Examples: […]
Consider “1-[4-(Pyrazin-2-yl)-phenyl]-4(S)-hydroxy-2-[N-(N-methoxycarbonyl-(L)-valyl)amino]-5(S)-[N-(N-methoxycarbonyl-(L)-tert-leucyl)amino]-6-phenyl-2-azahexane [Example 44]”, for which the IC50 amounted to 29 nM.

The same assay, now with this note: icosapeptide […] 122 µM, 20 mM MES pH 6.0, one hour at 37°C; read-out: IC50.
Take `COC(=O)N[C@H](C(=O)N[C@@H](Cc1ccccc1)[C@@H](O)CN(Cc1ccc(-c2nnnn2C)cc1)NC(=O)[C@@H](NC(=O)OC)C(C)(C)C)C(C)(C)C` [27 (1-methyl-1H-tetrazolyl isomer), 1-[4-(1-methyl-1H-tetrazol-5-yl)-phenyl]-4(S)-hydroxy-5(S)-2,5-bis[N-(N-methoxycarbonyl-(L)-tert-leucyl)amino]-6-phenyl-2-azahexane]: the IC50 is 51 nM.

With `COC(=O)N[C@H](C(=O)N[C@@H](Cc1ccccc1)[C@@H](O)CN(Cc1ccc(-c2cncs2)cc1)NC(=O)[C@@H](NC(=O)OC)C(C)C)C(C)C` [Example 1, 1-[4-(Thiazol-5-yl)-phenyl]-4(S)-hydroxy-5(S)-2,5-bis[N-(N-methoxycarbonyl-(L)-valyl)amino]-6-phenyl-2-azahexane], the IC50 is 32 nM.

Consider `COC(=O)N[C@H](C(=O)NN(Cc1ccc(-c2cncs2)cc1)C[C@H](O)[C@H](Cc1ccccc1)NC(=O)[C@@H](NC(=O)OC)C(C)(C)C)C(C)C` [Example 2, 1-[4-(Thiazol-5-yl)-phenyl]-4(S)-hydroxy-2-N-(N-methoxycarbonyl-(L)-valyl)-amino-5(S)-N-(N-methoxycarbonyl-(L)-tert-leucyl)amino-6-phenyl-2-azahexane], for which the IC50 is 14 nM.

Consider `COC(=O)N[C@H](C(=O)N[C@@H](Cc1ccccc1)[C@@H](O)CN(Cc1ccc(-c2cncs2)cc1)NC(=O)[C@@H](NC(=O)OC)C(C)(C)C)C(C)(C)C` [Example 3, 1-[4-(Thiazol-5-yl)-phenyl]-4(S)-hydroxy-5(S)-2,5-bis[N-(N-methoxycarbonyl-(L)-tert-leucyl)amino]-6-phenyl-2-azahexane], for which the IC50 amounted to 41 nM.

Consider `CC[C@H](C)[C@H](NC(=O)OC)C(=O)NN(Cc1ccc(-c2cncs2)cc1)C[C@H](O)[C@H](Cc1ccccc1)NC(=O)[C@@H](NC(=O)OC)C(C)(C)C` [Example 4, 1-[4-(Thiazol-5-yl)-phenyl]-4(S)-hydroxy-2-N-(N-methoxycarbonyl-(L)-iso-leucyl)amino-5(S)-N-(N-methoxycarbonyl-(L)-tert-leucyl)amino-6-phenyl-2-azahexane], for which the IC50 turned out to be 38 nM.

For the compound `COC(=O)N[C@@H](CSC)C(=O)NN(Cc1ccc(-c2cncs2)cc1)C[C@H](O)[C@H](Cc1ccccc1)NC(=O)[C@@H](NC(=O)OC)C(C)(C)C` [Example 5, 1-[4-(Thiazol-5-yl)-phenyl]-4(S)-hydroxy-2-N-(N-methoxycarbonyl-(L)-S-methylcysteinyl)amino-5(S)-N-(N-methoxycarbonyl-(L)-tert-leucyl)amino-6-phenyl-2-azahexane], the IC50 is 40 nM.

For `CCOC(=O)N[C@H](C(=O)NN(Cc1ccc(-c2cncs2)cc1)C[C@H](O)[C@H](Cc1ccccc1)NC(=O)[C@@H](NC(=O)OC)C(C)(C)C)C(C)C` [Example 6, 1-[4-(Thiazol-5-yl)-phenyl]-4(S)-hydroxy-2-N-(N-ethoxycarbonyl-(L)-valyl)-amino-5(S)-N-(N-methoxycarbonyl-(L)-tert-leucyl)amino-6-phenyl-2-azahexane], the IC50 was determined as 22 nM.

For the compound `COC(=O)N[C@H](C(=O)N[C@@H](Cc1ccccc1)[C@@H](O)CN(Cc1ccc(-c2cncs2)cc1)NC(=O)[C@@H](NC(=O)OC)C(C)(C)C)C(C)C` [Example 7, 1-[4-(Thiazol-5-yl)-phenyl]-4(S)-hydroxy-2-N-(N-methoxcarbonyl-(L)-tert-leucyl)amino-5(S)-N-(N-methoxycarbonyl-(L)-valyl)amino-6-phenyl-2-azahexane], the IC50 amounted to 13 nM.

With `CCOC(=O)N[C@H](C(=O)NN(Cc1ccc(-c2cncs2)cc1)C[C@H](O)[C@H](Cc1ccccc1)NC(=O)[C@@H](NC(=O)OC)C(C)C)C(C)C` [Example 8, 1-[4-(Thiazol-5-yl)-phenyl]-4(S)-hydroxy-2-N-(N-ethoxycarbonyl-(L)-valyl)-amino-5(S)-N-(N-methoxycarbonyl-(L)-valyl)amino-6-phenyl-2-azahexane], the IC50 was determined as 10 nM.

In the case of `CC[C@H](C)[C@H](NC(=O)OC)C(=O)NN(Cc1ccc(-c2cncs2)cc1)C[C@H](O)[C@H](Cc1ccccc1)NC(=O)[C@@H](NC(=O)OC)C(C)C` [Example 9, 1-[4-(Thiazol-5-yl)-phenyl]-4(S)-hydroxy-2-N-(N-methoxycarbonyl-(L)-isoleucyl)amino-5(S)-N-(N-methoxycarbonyl-(L)-valyl)amino-6-phenyl-2-azahexane], the IC50 is 19 nM.

In the case of `COC(=O)N[C@@H](CSC)C(=O)NN(Cc1ccc(-c2cncs2)cc1)C[C@H](O)[C@H](Cc1ccccc1)NC(=O)[C@@H](NC(=O)OC)C(C)C` [Example 10, 1-[4-(Thiazol-5-yl)-phenyl]-4(S)-hydroxy-2-N-(N-methoxycarbonyl-(L)-S-methylcysteinyl)amino-5(S)-N-(N-methoxycarbonyl-(L)-valyl)amino-6-phenyl-2-azahexane], the IC50 is 20 nM.

In the case of `CC[C@H](C)[C@H](NC(=O)OC)C(=O)N[C@@H](Cc1ccccc1)[C@@H](O)CN(Cc1ccc(-c2cncs2)cc1)NC(=O)[C@@H](NC(=O)OC)C(C)(C)C` [Example 11, 1-[4-(Thiazol-5-yl)-phenyl]-4(S)-hydroxy-2-N-(N-methoxycarbonyl-(L)-tert-leucyl)amino-5(S)-N-(N-methoxycarbonyl-(L)-iso-leucyl)amino-6-phenyl-2-azahexane], the IC50 is 37 nM.

Regarding `CC[C@H](C)[C@H](NC(=O)OC)C(=O)N[C@@H](Cc1ccccc1)[C@@H](O)CN(Cc1ccc(-c2cncs2)cc1)NC(=O)[C@@H](NC(=O)OC)C(C)C` [Example 12, 1-[4-(Thiazol-5-yl)-phenyl]-4(S)-hydroxy-2-N-(N-methoxycarbonyl-(L)-valyl)amino-5(S)-N-(N-methoxycarbonyl-(L)-iso-leucyl)amino-6-phenyl-2-azahexane], the IC50 stood at 20 nM.

`CC[C@H](C)[C@H](NC(=O)OC)C(=O)N[C@@H](Cc1ccccc1)[C@@H](O)CN(Cc1ccc(-c2cncs2)cc1)NC(=O)[C@@H](NC(=O)OC)[C@@H](C)CC` [Example 13, 1-[4-(Thiazol-5-yl)-phenyl]-4(S)-hydroxy-5(S)-2,5-bis[N-(N-methoxycarbonyl-(L)-iso-leucyl)amino]-6-phenyl-2-azahexane]: the IC50 is 32 nM.

As for `CCOC(=O)N[C@H](C(=O)NN(Cc1ccc(-c2cncs2)cc1)C[C@H](O)[C@H](Cc1ccccc1)NC(=O)[C@@H](NC(=O)OC)[C@@H](C)CC)C(C)C` [Example 14, 1-[4-(Thiazol-5-yl)-phenyl]-4(S)-hydroxy-2-N-(N-ethoxycarbonyl-(L)-valyl)-amino-5(S)-N-(N-methoxycarbonyl-(L)-iso-leucyl)amino-6-phenyl-2-azahexane], the IC50 came out at 31 nM.

For the compound `CC[C@H](C)[C@H](NC(=O)OC)C(=O)N[C@@H](Cc1ccccc1)[C@@H](O)CN(Cc1ccc(-c2cncs2)cc1)NC(=O)[C@H](CSC)NC(=O)OC` [Example 15, 1-[4-(Thiazol-5-yl)-phenyl]-4(S)-hydroxy-2-N-(N-methoxycarbonyl-(L)-S-methylcysteinyl)amino-5(S)-N-(N-methoxycarbonyl-(L)-iso-leucyl)amino-6-phenyl-2-azahexane], the IC50 was 50 nM.

As to `COC(=O)N[C@H](C(=O)N[C@@H](Cc1ccccc1)[C@@H](O)CN(Cc1ccc(-c2nccs2)cc1)NC(=O)[C@@H](NC(=O)OC)C(C)(C)C)C(C)(C)C` [Example 16, 1-[4-(Thiazol-2-yl)-phenyl]-4(S)-hydroxy-5(S)-2,5-bis[N-(N-methoxycarbonyl-(L)-tert-leucyl)amino]-6-phenyl-2-azahexane], the IC50 was 33 nM.

On to `COC(=O)N[C@H](C(=O)N[C@@H](Cc1ccccc1)[C@@H](O)CN(Cc1ccc(-c2nccs2)cc1)NC(=O)[C@@H](NC(=O)OC)C(C)(C)C)C(C)C` [Example 17, 1-[4-(Thiazol-2-yl)-phenyl]-4(S)-hydroxy-2-N-(N-methoxycarbonyl-(L)-tert-leucyl)amino-5(S)-N-(N-methoxycarbonyl-(L)-valyl)amino-6-phenyl-2-azahexane], for which the IC50 is 18 nM.

For `CC[C@H](C)[C@H](NC(=O)OC)C(=O)NN(Cc1ccc(-c2nccs2)cc1)C[C@H](O)[C@H](Cc1ccccc1)NC(=O)[C@@H](NC(=O)OC)C(C)C` [Example 18, 1-[4-(Thiazol-2-yl)-phenyl]-4(S)-hydroxy-2-N-(N-methoxycarbonyl-(L)-iso-leucyl)amino-5(S)-N-(N-methoxycarbonyl-(L)-valyl)amino-6-phenyl-2-azahexane], the IC50 was 25 nM.
